Columns and labels:
[1] = test system: Phaedon cochleariae; experiment: Phaedon test (PHAECO spray treatment); assay type: in vivo; details: 168 h, sprayed Chinese cabbage discs, after 7 days, read-out: activity in % (beetle larvae killed)
Method: (§1) Solvents: 78.0 parts by weight of acetone 1.5 parts by weight of dimethylformamide Emulsifier: 0.5 part by weight of alkylaryl polyglycol ether To produce a suitable preparation of active compound, 1 part by weight of active compound is mixed with the stated amount of solvents and emulsifier, and the concentrate is diluted with emulsifier-containing water to the desired concentration. Discs of Chinese cabbage (Brassica pekinensis) are sprayed with an active compound preparation of the desired concentration and, after drying, populated with larvae of the mustard beetle (Phaedon cochleariae). After 7 days, the activity in % is determined. 100% means that all beetle larvae have been killed; 0% means that none of the beetle larvae have been killed.

[2] = test system: Boophilus microplus; experiment: Boophilus microplus test (BOOPMI injection); assay type: in vivo; details: 20 μg/animal, injection into the abdomen, after 7 days
Method: Solvent: dimethyl sulphoxide To produce a suitable preparation of active compound, 10 mg of active compound are mixed with 0.5 ml of solvent and the concentrate is diluted with solvent to the desired concentration. The active compound solution is injected into the abdomen (Boophilus microplus), and the animals are transferred into dishes and stored in a climate-controlled room. The activity is assessed by […] of fertile eggs. After 7 days, the effect in % is determined. 100% means that none of the ticks has laid any fertile eggs.

[3] = logP by HPLC on reversed-phase columns (C 18), EEC Directive 79/831 Annex V.A8; assay type: physicochemical; details: reversed-phase HPLC column (C 18), pH 2.7, HPLC, reversed-phase C 18, acidic range pH 2.7; table of compounds; read-out: log P
Method: The logP values reported in the table above and in the Preparation Examples were determined in accordance with EEC Directive 79/831 Annex V.A8 by HPLC (High Performance Liquid Chromatography) on reversed-phase columns (C 18), with the following methods: The LC-MS determination in the acidic range is carried out at pH 2.7 using the mobile phases 0.1% aqueous formic acid and acetonitrile (contains 0.1% formic acid), linear gradient from 10% acetonitrile to 95% acetonitrile Calibration was carried out using unbranched alkan-2-ones (having from 3 to 16 carbon atoms) with known logP values (the logP values were determined by the retention times using linear interpolation between two successive alkanones).

[4] = test system: Lucilia cuprina; experiment: Lucilia cuprina test (LUCICU); assay type: in vivo; details: 48 h, treated horse meat, larvae, after 2 days, read-out: kill in %
Method: (§2) Solvent: dimethyl sulphoxide To produce a suitable preparation of active compound, 10 mg of active compound are mixed with 0.5 ml of dimethyl sulphoxide and the concentrate is diluted with water to the desired concentration. Vessels containing horse meat treated with the active compound preparation of the desired concentration are populated with about 20 Lucilia cuprina larvae. After 2 days, the kill in % is determined. 100% means that all of the larvae have been killed; 0% means that none of the larvae have been killed.

[5] = test system: Spodoptera frugiperda; experiment: Spodoptera frugiperda test (SPODFR spray treatment); assay type: in vivo; details: foliar, 168 h, sprayed maize leaf discs, after 7 days, read-out: effect in % (caterpillars killed)
Method: as §1, with “maize leaves (Zea mays)” for “Chinese cabbage (Brassica pekinensis)”, “caterpillars” for “larvae”, “armyworm (Spodoptera frugiperda).” for “mustard beetle (Phaedon cochleariae).”, “effect” for “activity”, “determined” for “determined.”, “caterpillars” for “beetle larvae”

[6] = test system: Myzus persicae; experiment: Myzus test (MYZUPE spray treatment); assay type: in vivo; details: 100 g/ha, sprayed Chinese cabbage discs, all stages, after 6 days
Method: (§3) Solvents: 78 parts by weight of acetone 1.5 parts by weight of dimethylformamide Emulsifier: 0.5 part by weight of alkylaryl polyglycol ether To produce a suitable preparation of active compound, 1 part by weight of active compound is mixed with the stated amount of solvents and emulsifier, and the concentrate is diluted with emulsifier-containing water to the desired concentration. Discs of Chinese cabbage (Brassica pekinensis) infested by all stages of the green peach aphid (Myzus persicae) are sprayed with an active compound preparation of the desired concentration. After 6 days, the effect in % is determined. 100% means that all of the aphids have been killed; 0% means that none of the aphids have been killed.

[7] = test system: Tetranychus urticae; experiment: Tetranychus test, OP-resistant (TETRUR spray treatment); assay type: in vivo; details: 100 g/ha, sprayed bean leaf discs, all stages, after 6 days
Method: as §3, with “78.0” for “78”, “bean leaves (Phaseolus vulgaris) which are” for “Chinese cabbage (Brassica pekinensis)”, “greenhouse red spider mite (Tetranychus urticae)” for “green peach aphid (Myzus persicae)”, “activity” for “effect”, “spider mites” for “aphids”

[8] = test system: Musca domestica; experiment: Musca domestica test (MUSCDO); assay type: in vivo; details: 100 ppm, treated sponge, adult flies, after 2 days
Method: as §2, with “a sponge” for “horse meat”, “adult Musca domestica.” for “about 20 Lucilia cuprina larvae.”, “flies” for “larvae”

SMILES | pest or weed control at 100 g/ha [1] [%] | effect in % (no fertile eggs laid) [2] [%] | chromatographic logP [3] | pest or weed control at 100 ppm [4] [%] | pest or weed control at 100 g/ha [5] [%] | effect in % (aphids killed) [6] [%] | activity in % (spider mites killed) [7] [%] | kill in % [8] [%]
Cc1cc(Cl)cc(C(=O)NC(C)(C)C)c1NC(=O)c1cnc(Cn2nnc(C(F)(F)F)n2)nc1-c1ccccc1Cl [Compound 41] | 100 | 100 | 4.33 | 100 | 100 | – | – | –
Cc1cc(Cl)cc(C(N)=O)c1NC(=O)c1cnc(Cn2nnc(C(F)(F)F)n2)nc1-c1ccccc1Cl [Compound 35] | 100 | 98 | 3.01 | 100 | 100 | – | – | –
CNC(=O)c1cc(Cl)cc(C)c1NC(=O)c1cc(Cn2nnc(C(F)(F)F)n2)cn1-c1ccccc1Cl [Compound 43] | 100 | – | 3.75 | – | 100 | 100 | – | –
Cc1cc(Cl)cc(C(=O)NC(C)(C)C)c1NC(=O)c1nc(Cn2nnc(C(F)(F)F)n2)sc1-c1ccccc1Cl [Compound 8] | – | – | 4.75 | – | – | – | 80 | –
Cc1cc(Cl)cc(C(=O)NC(C)C)c1NC(=O)c1cnc(Cn2nnc(C(F)(F)F)n2)nc1-c1ccccc1Cl [Compound 34] | 100 | 100 | 3.91 | 100 | 100 | – | – | –
CNC(=O)c1cc(C#N)cc(C)c1NC(=O)c1cnc(Cn2nnc(C(F)(F)F)n2)nc1-c1ccccc1Cl [Compound 38] | 100 | 100 | 2.93 | 100 | 100 | – | – | –
Cc1cc(Br)cc(C(N)=O)c1NC(=O)c1sc(Cn2nnc(C(F)(F)F)n2)nc1-c1ccccc1Cl [Compound 3] | – | – | 3.45 | 100 | – | – | 100 | –
Cc1cc(C#N)cc(C(=O)NC(C)(C)C)c1NC(=O)c1cnc(Cn2nnc(C(F)(F)F)n2)nc1-c1ccccc1Cl [Compound 39] | 100 | 100 | 3.85 | 100 | 100 | – | – | –
Cc1cc(C#N)cc(C(N)=O)c1NC(=O)c1cnc(Cn2nnc(C(F)(F)F)n2)nc1-c1ccccc1Cl [Compound 40] | 100 | 100 | 2.69 | 100 | 100 | – | – | –
Cc1cc(C#N)cc(C(=O)NC(C)(C)C)c1NC(=O)c1sc(Cn2nnc(C(F)(F)F)n2)nc1-c1ccccc1Cl [Compound 30] | 100 | – | 4.07 | – | 100 | – | – | –
Cc1cc(C#N)cc(C(=O)NC(C)C)c1NC(=O)c1cnc(Cn2nnc(C(F)(F)F)n2)nc1-c1ccccc1Cl [Compound 37] | 100 | 100 | 3.5 | 100 | 100 | – | – | 100
CNC(=O)c1cc(C#N)cc(C)c1NC(=O)c1cc(Cn2nnc(C(F)(F)F)n2)cn1-c1ccccc1Cl [Compound 42] | 100 | – | 3.31 | – | 100 | 80 | – | –
Cc1cc(Br)cc(C(=O)NC(C)(C)C)c1NC(=O)c1sc(Cn2nnc(C(F)(F)F)n2)nc1-c1ccccc1Cl [Compound 26] | 100 | – | 4.69 | – | 100 | – | – | –
